Results as given in patent US9951049B2, “Pyrazole linked benzimidazole conjugates and a process for preparation thereof” (Council of Scientific & Industrial Reseach, priority 2014, dated 2018).

Assays:
UACC-254 = experiment: NCI SRB screen, UACC-254; conditions: Homo sapiens, read-out: GI50 values
SK-MEL-5 = experiment: NCI SRB screen, SK-MEL-5; conditions: Homo sapiens, SK-MEL-5, 48 h, read-out: GI50 values, Melanoma, SK-MEL-5
MDA-MB-468 = experiment: NCI SRB screen, MDA-MB-468; conditions: Homo sapiens, MDA-MB-468, read-out: GI50 values

Fc1ccc2[nH]c(-c3cc(-c4ccc5c(c4)OCO5)n[nH]3)nc2c1 [7g, 2-(3-(benzo[d][1,3]dioxol-5-yl)-1H-pyrazol-5-yl)-5-fluoro-1H-benzo[d]imidazole] gave a GI50 (UACC-254) of 1020 nM and a GI50 (SK-MEL-5) of 1460 nM.
c1ccc2[nH]c(-c3cc(-c4ccc5c(c4)OCO5)n[nH]3)nc2c1 [6g, 2-(3-(benzo[d][1,3]dioxol-5-yl)-1H-pyrazol-5-yl)-1H-benzo[d]imidazole] showed a GI50 (SK-MEL-5) of 1530 nM.
With COc1cc(-c2cc(-c3nc4ccccc4[nH]3)[nH]n2)cc(OC)c1OC [6f, 2-(3-(3,4,5-trimethoxyphenyl)-1H-pyrazol-5-yl)-1H-benzo[d]imidazole] the GI50 (SK-MEL-5) was 1340 nM.
In the case of COc1ccc2[nH]c(-c3cc(-c4cc(OC)c(OC)c(OC)c4)n[nH]3)nc2c1 [9f, 5-methoxy-2-(3-(3,4,5-trimethoxyphenyl)-1H-pyrazol-5-yl)-1H-benzo[d]imidazole], the GI50 (MDA-MB-468) was 380 nM.
COc1cc(-c2cc(-c3nc4cc(Cl)ccc4[nH]3)[nH]n2)cc(OC)c1OC [8f, 5-chloro-2-(3-(3,4,5-trimethoxyphenyl)-1H-pyrazol-5-yl)-1H-benzo[d]imidazole] gave a GI50 (SK-MEL-5) of 1620 nM.
COc1cc(-c2cc(-c3nc4cc(Cl)c(Cl)cc4[nH]3)[nH]n2)cc(OC)c1OC [10f, 5,6-dichloro-2-(3-(3,4,5-trimethoxyphenyl)-1H-pyrazol-5-yl)-1H-benzo[d]imidazole] showed a GI50 (SK-MEL-5) of 1560 nM.
